# Data: US9181235B2, “Substituted pyridines for modulating the WNT signaling pathway” (NOVARTIS AG, priority 2010, dated 2015)
# System: Wnt signaling
# Assay: Wnt-Luc reporter assay for pathway inhibition of Wnt signaling
# Type: cell-based, mouse (TM3 Wnt-Luc) or human (293 Wnt-Luc); not stated which
# Details: Wnt-Luc reporter cells co-cultured with L-cell Wnt3a cells, 24 hours, luciferase signal reduced by 50%
# Description: This example provides a method that is useful for evaluating test compounds for inhibition of Wnt signaling.
# Mouse leydig cell TM3 cells (obtained from American Type Culture Collection, ATCC, Manassas, Va.) are cultured in 1:1 mixture of Ham's F12 medium and Dulbecco's modified Eagle's medium (Gibco/Invitrogen, Carlsbad, Calif.) supplemented with 2.5% FBS (Gibco/Invitrogen, Carlsbad, Calif.) and 5% horse serum (Gibco/Invitrogen, Carlsbad, Calif.), 50 unit/mL penicillin and 50 μg/mL of streptomycin (Gibco/Invitrogen, Carlsbad, Calif.) at 37° C. with 5% CO2 in air atmosphere. TM3 cells in a 10 cm dish are co-transfected with 8 μg of STF-reporter plasmid containing a luciferase gene driven by Wnt-responsive elements and 2 μg of pcDNA3.1-Neo (Gibco/Invitrogen, Carlsbad, Calif.) with 30 μL of FuGENE6 (Roche Diagnostics, Indianapolis, Ind.) following the manufacturer's protocol. Stable cell lines (TM3 Wnt-Luc) were selected with 400 μg/mL of G418 (Gibco/Invitrogen, Carlsbad, Calif.). The TM3 Wnt-Luc cells and L-cell Wnt3a cells (obtained from American Type Culture Collection, ATCC, Manassas, Va.; cultured in Dulbecco's modified Eagle's medium (Gibco/Invitrogen, Carlsbad, Calif.) supplemented with 10% FBS (Gibco/Invitrogen, Carlsbad, Calif.) and 50 unit/mL penicillin and 50 μg/mL of streptomycin (Gibco/Invitrogen, Carlsbad, Calif.) at 37° C. with 5% CO2 in air atmosphere) are trypsinized and co-cultured into a 384-well plate with DMEM medium supplemented with 2% FBS, and treated with different concentrations of a compound of the invention. After 24 hours, the firefly luciferase activities are assayed with the Bright-Glo™ Luciferase Assay System (Promega, Madison, Wis.). The IC50 is measured when the effect of the compound reduces the luminescence signal by 50%.
# This example provides another method that is useful for evaluating test compounds for inhibition of Wnt signaling.
# Human embryonic kidney 293 cells (obtained from American Type Culture Collection, ATCC, Manassas, Va.) are cultured in DMEM medium (Gibco/Invitrogen, Carlsbad, Calif.) supplemented with 10% FBS (Gibco/Invitrogen, Carlsbad, Calif.), 50 unit/mL penicillin and 50 μg/mL of streptomycin (Gibco/Invitrogen, Carlsbad, Calif.) at 37° C. with 5% CO2 in air atmosphere. 293 cells in a 10 cm dish are co-transfected with 8 μg of STF-reporter plasmid containing a luciferase gene driven by Wnt-responsive elements and 2 μg of pcDNA3.1-Neo (Gibco/Invitrogen, Carlsbad, Calif.) with 30 μL of FuGENE6 (Roche Diagnostics, Indianapolis, Ind.) following the manufacturer's protocol. Stable cell lines (293 Wnt-Luc) were selected with 400 μg/mL of G418 (Gibco/Invitrogen, Carlsbad, Calif.). The 293 Wnt-Luc cells and L-cell Wnt3a cells (obtained from American Type Culture Collection, ATCC, Manassas, Va.) are trypsinized and co-cultured into a 384-well plate with DMEM medium supplemented with 2% FBS, and treated with different concentrations of a compound of the invention. After 24 hours, the firefly luciferase activities are assayed with the Bright-Glo™ Luciferase Assay System (Promega, Madison, Wis.). The IC50 is measured when the effect of the compound reduces the luminescence signal by 50%.
row,SMILES,IC50 [nM]
1,"O=C(NCc1ccc(-c2ccnnc2)cc1)c1ccc(-c2ccccc2)cc1 [compound 1, N-(4-(pyridazin-4-yl)benzyl)biphenyl-4-carboxamide]",1.9
2,"O=C(NCc1ccc(-c2ccnnc2)cc1)c1ccc(-c2cccc(F)c2)cc1 [compound 2, 4-(3-fluorophenyl)-N-{[4-(pyridazin-4-yl)phenyl]methyl}benzamide]",0.95
3,"O=C(NCc1ccc(N2CCS(=O)(=O)CC2)nc1)c1ccc(-c2cccc(F)c2)cc1 [compound 3, N-((6-(1,1-dioxidothiomorpholino)pyridin-3-yl)methyl)-3′-fluoro-[1,1′-biphenyl]-4-carboxamide]",2.3
4,"O=C(NCc1ccc(N2CCS(=O)(=O)CC2)nc1)c1ccc(-c2cccc(F)c2)nc1 [compound 4, N-((6-(1,1-dioxidothiomorpholino)pyridin-3-yl)methyl)-6-(3-fluorophenyl)nicotinamide]",2.4
5,"O=C(NCc1ccc(N2CCS(=O)(=O)CC2)nc1)c1ccc(-c2cccnc2)nc1 [compound 5, N-((6-(1,1-dioxidothiomorpholino)pyridin-3-yl)methyl)-[2,3′-bipyridine]-5-carboxamide]",129
6,"O=C(NCc1ccc(N2CCS(=O)(=O)CC2)nc1)c1ccc(-c2cccc(F)c2)cn1 [compound 6, 5-(3-Fluorophenyl)-N-((6-(1,1-dioxide-thiomorpholino)pyridin-3-yl)methyl)picolinamide]",0.9
7,"COC(=O)N1CCN(c2ccc(C(=O)NCc3ccc(N4CCS(=O)(=O)CC4)nc3)cc2)CC1 [compound 7, methyl 4-(4-(((6-(1,1-dioxidothiomorpholino)pyridin-3-yl)methyl)carbamoyl)phenyl)piperazine-1-carboxylate]",19
8,"O=C(NCc1ccc(N2CC[S+]([O-])CC2)nc1)c1ccc(-c2cccc(F)c2)cc1 [compound 8, 3′-fluoro-N-((6-(1-oxide-thiomorpholino)pyridin-3-yl)methyl)biphenyl-4-carboxamide]",0.7
9,"Cc1cc(-c2ccc(CNC(=O)c3ccc(-c4ccccc4)cc3)cc2)ccn1 [compound 9, N-{[4-(2-methylpyridin-4-yl)phenyl]methyl}-4-phenylbenzamide]",0.06
10,"O=C(NCc1ccc(-c2cccnc2)cc1)c1ccc(-c2ccccc2)cc1 [compound 10, N-(4-(pyridin-3-yl)benzyl)biphenyl-4-carboxamide]",12.5
11,"Cc1cc(-c2ccc(CNC(=O)c3ccc(-c4ccccc4)cn3)cc2)ccn1 [compound 11, N-{[4-(2-methylpyridin-4-yl)phenyl]methyl}-5-phenylpyridine-2-carboxamide]",0.2
12,"Cc1cc(-c2ccc(CNC(=O)c3ccc(-c4cccc(F)c4)cc3)cc2)ccn1 [compound 12, 4-(3-fluorophenyl)-N-{[4-(2-methylpyridin-4-yl)phenyl]methyl}benzamide]",0.06
13,"Cc1cc(-c2ccc(CNC(=O)c3ccc(-c4ccccn4)cc3)cc2)ccn1 [compound 13, N-(4-(2-methylpyridin-4-yl)benzyl)-4-(pyridin-2-yl)benzamide]",0.1
14,"COC(=O)N1CCN(c2ccc(C(=O)NCc3cnc(-c4ccnc(C(F)(F)F)c4)c(F)c3)cn2)CC1 [compound 14, methyl 4-{5-[({5-fluoro-6-[2-(trifluoromethyl)pyridin-4-yl]pyridin-3-yl}methyl)carbamoyl]pyridin-2-yl}piperazine-1-carboxylate]",0.44
15,"Cc1cc(-c2ccc(CNC(=O)c3ccc(-c4cncnc4)cc3)cc2F)ccn1 [compound 15, N-(3-fluoro-4-(2-methylpyridin-4-yl)benzyl)-4-(pyrimidin-5-yl)benzamide]",0.01
16,"Cc1cc(-c2ccc(CNC(=O)c3ccc(-c4cncnc4)cc3)cc2)ccn1 [compound 16, N-{[4-(2-methylpyridin-4-yl)phenyl]methyl}-4-(pyrimidin-5-yl)benzamide]",0.05
17,"Cc1cc(-c2ccc(CNC(=O)c3ccc(-c4cnccn4)cc3)cc2)ccn1 [compound 17, N-{[4-(2-methylpyridin-4-yl)phenyl]methyl}-4-(pyrazin-2-yl)benzamide]",0.06
18,"Cc1cc(-c2ccc(CNC(=O)c3ccc(-c4cnccn4)cc3)cn2)ccn1 [compound 18, N-((2′-methyl-[2,4′-bipyridin]-5-yl)methyl)-4-(pyrazin-2-yl)benzamide]",0.2
19,"Cc1cc(-c2ccc(CNC(=O)c3ccc(-c4ccnnc4)nc3)cc2)ccn1 [compound 19, N-{[4-(2-methylpyridin-4-yl)phenyl]methyl}-6-(pyridazin-4-yl)pyridine-3-carboxamide]",27
20,"CC(=O)N1CCN(c2ccc(C(=O)NCc3ccc(-c4ccnc(C)c4)c(F)c3)cn2)CC1 [compound 20, 6-(4-Acetylpiperazin-1-yl)-N-(3-fluoro-4-(2-methylpyridin-4-yl)benzyl)nicotinamide]",6.4
21,"Cn1cc(-c2ccc(CNC(=O)c3ccc(-c4cnccn4)cc3)cc2F)ccc1=O [compound 21, N-(3-fluoro-4-(1-methyl-6-oxo-1,6-dihydropyridin-3-yl)benzyl)-4-(pyrazin-2-yl)benzamide]",6.4

# The next lines start with the values.
row,IC50 [nM],SMILES
1,8.5,"CC(=O)N1CCN(c2ccc(C(=O)NCc3ccc(-c4ccnc(C)c4)c(F)c3)nc2)CC1 [compound 22, 5-(4-acetylpiperazin-1-yl)-N-{[3-fluoro-4-(2-methylpyridin-4-yl)phenyl]methyl}pyridine-2-carboxamide]"
2,0.1,"Cc1cc(-c2ccc(CNC(=O)c3ccc(-c4cccc(F)c4)cc3)cn2)ccn1 [compound 23, 4-(3-fluorophenyl)-N-{[6-(2-methylpyridin-4-yl)pyridin-3-yl]methyl}benzamide]"
3,0.8,"O=C(NCc1ccc(-c2ccnc(F)c2)nc1)c1ccc(-c2cnccn2)cc1 [compound 24, N-((2′-fluoro-[2,4′-bipyridin]-5-yl)methyl)-4-(pyrazin-2-yl)benzamide]"
4,1.4,"CN(C)c1ccc(-c2ccc(C(=O)NCc3ccc(-c4ccnc(F)c4)nc3)cn2)cn1 [compound 25, 6-[6-(dimethylamino)pyridin-3-yl]-N-{[6-(2-fluoropyridin-4-yl)pyridin-3-yl]methyl}pyridine-3-carboxamide]"
5,0.5,"Cc1cc(-c2ccc(CNC(=O)c3ccc(-c4cccc(F)c4)cn3)cn2)ccn1 [compound 26, 5-(3-fluorophenyl)-N-{[6-(2-methylpyridin-4-yl)pyridin-3-yl]methyl}pyridine-2-carboxamide]"
6,0.2,"Cc1cc(-c2ccc(CNC(=O)c3ccc(-c4cccc(F)c4)nc3)cn2)ccn1 [compound 27, 6-(3-fluorophenyl)-N-{[6-(2-methylpyridin-4-yl)pyridin-3-yl]methyl}pyridine-3-carboxamide]"
7,0.9,"O=C(NCc1ccc(-c2ccnc(C(F)(F)F)c2)cc1)c1ccc(-c2cnccn2)cc1 [compound 28, 4-(Pyrazin-2-yl)-N-(4-(2-(trifluoromethyl)pyridin-4-yl)benzyl)benzamide]"
8,43,"Cc1cc(-c2ccc(CNC(=O)c3ccc(-c4cccc(N(C)C)c4)cn3)cn2)ccn1 [compound 29, 5-[3-(dimethylamino)phenyl]-N-{[6-(2-methylpyridin-4-yl)pyridin-3-yl]methyl}pyridine-2-carboxamide]"
9,0.17,"Cc1cc(CNC(=O)c2ccc(-c3cccc(F)c3)cn2)cnc1-c1ccnc(F)c1 [compound 30, N-((2′-fluoro-3-methyl-2,4′-bipyridin-5-yl)methyl)-5-(3-fluorophenyl)picolinamide]"
10,8,"CC(=O)c1cccc(-c2ccc(C(=O)NCc3ccc(-c4ccnc(C)c4)nc3)nc2)c1 [compound 31, 5-(3-acetylphenyl)-N-{[6-(2-methylpyridin-4-yl)pyridin-3-yl]methyl}pyridine-2-carboxamide]"
11,0.7,"O=C(NCc1ccc(-c2ccnc(C(F)(F)F)c2)nc1)c1ccc(-c2cnccn2)cc1 [compound 32, 4-(pyrazin-2-yl)-N-({6-[2-(trifluoromethyl)pyridin-4-yl]pyridin-3-yl}methyl)benzamide]"
